Data from publication PMC7587333, “Synthesis, Molecular Docking, and In Vitro Boron Neutron Capture Therapy Assay of Carboranyl Sinomenine” (Molecules, 2020).
Where two headings read alike, the source gives them in different places.

Experiments:
[1] = tested on: rat C6 glioma cells; design: method as in PMID 31260876; conditions: cited from earlier work
[2] = tested on: rat FLS cells; design: method as in PMID 15980490; conditions: cited from earlier work
[3] = tested on: malignant cells; conditions: background statement, no reference given; cited from earlier work
[4] = tested on: rat C6 gliosarcoma cells; assay: In vitro survival study (BNCT, thermal neutron irradiation, colony formation), C6 cells; format: cell-based; conditions: C6 gliosarcoma tumor cells
From the text: (§1) The preliminary in vitro killing effects of compound 3 were examined by using rat C6 gliosarcoma tumor cells and fibroblast-like synoviocytes (FLS) cells, respectively. The in vitro survival study was completed with the thermal neutron fluence ranging from 0 to 4.2 × 10^12 n/cm^2. The γ-ray dose presented in the experiment was monitored by thermoluminescent dosimeters (TLDs) attached to the tubes and ranged from 0 to 5 Sv. […] A low surviving fraction of around 0.01 was obtained by compound 3 after irradiation for 50 min.
(§2) The in vitro assessments were carried out according to methods reported in the literature. […] The inability of cells to adhere to Teflon allows precise quantitative manipulation of cells without trypsinization. […] The thermal neutron fluence was determined by averaging the activity of two gold films symmetrically attached to the Teflon tube surface along the thermal neutron axis. […] The neutron absorbed dose (Gy) was calculated using the flux-to-dose conversion factor [39, 40]. […] The γ-ray dose was monitored by thermoluminescent dosimeters (TLDs) (Kyoto, Japan) attached to the tubes, and it ranged from 0 to 5 Sv. […] The colonies were fixed and stained with a 10% formaldehyde/1% toluidine blue solution and then counted microscopically.
(§3) The in vitro BNCS was carried out in triplicate. […] The significance of the differences in survival rates was assessed by Student’s t-test. […]

[5] = tested on: rat fibroblast-like synoviocytes (FLS) cells; assay: In vitro survival study (BNCS, thermal neutron irradiation, colony formation), FLS cells; format: cell-based; conditions: same operating conditions as L-BPA
From the text: as §1, §2, §3

[6] = tested on: rat FLS cells; assay: Cytotoxicity study, standard MTT assay; format: cell-based; conditions: 3 days of continuous exposure, no irradiation, read-out: IC50 (growth inhibition, cytotoxicity)
Protocol: The IC50 (moles/liter, M), the concentration that inhibited the growth of rat FLS cells by 50% after 3 days of continuous exposure, was determined using the standard MTT assay. Suspensions of 4.9 × 10^5 of rat fibroblast-like synoviocytes cells /200 μL MEM containing 20% FCS were incubated for 3 days using 96-well culture plates with various concentrations of the samples in dimethyl sulfoxide (DMSO). The damaged cells were detected at 490 nm optical absorbance by Aqueous One Solution Cell Proliferation Assay.
Figure S-4. 1H NMR of 3 in DMSO-d6.
2. Cytotoxicity study. For IC50 analysis, the standard MTT method was used to analyze IC50 of compound 3. The IC50 determinations were performed in the presence of serial dilutions of inhibitor (1000 μM to 3.906 µM, 1% DMSO, final) in complete reaction buffer and incubated for […].
Figure S-5. IC50 dose responsive curve of 3 for rat FLS cells. […]

[7] = tested on: rat C6 glioma cells; assay: Uptake of boron by rat C6 glioma cells (ICP-AES); format: cell-based; conditions: 24 h culture with boron agent
From the text: (§4) The rat C6 glioma cells and fibroblast-like synoviocytes (FLS) cells were used to conduct the boron uptake of 3. The boron uptakes of clinically used L-BPA and BSH were also listed for comparation. The results reveal that 3 was able to permeate both C6 glioma cells and FLS cells. […] The higher membrane permeability provides enhanced boron concentration in the cell lines. […] Nevertheless, the detailed mechanism of 3 crossing cell membrane warrants further investigation.
(§5) According to literature, 3.7 × 10^8 rat FLS cells or 2.6 × 10^7 rat C6 glioma cells were seeded and cultured at […] (37 °C, 5% CO2) for 24 hrs. This culture fluid was removed therefrom by suction, culture fluids containing 1.5 mM of boron agent 3 with the boron concentrations of 3.0 mM, 1.5 mM, 18.0 mM, and 1.5 mM, respectively, were added and continued culturing for 24 h under the same conditions. These culture fluids were removed by suction and the cells were washed three times with PBS and treated with trypsin to recover the cells. The number of cells recovered was counted, and HNO3 (2N, 1.5 mL) was added and the resulting mixture was heated at 80 °C for 12 h. After filtering using a membrane filter, the boron concentration was determined by ICP-AES (Singapore).

[8] = tested on: rat FLS cells; assay: Uptake of boron by rat fibroblast-like synoviocytes cells (ICP-AES); format: cell-based; conditions: 24 h culture with boron agent
From the text: as §4, §5

[9] = Solubility in organic solvents; format: physicochemical; conditions: organic solvents such as DMF, THF and DMSO
From the text: Carboranyl sinomenine product was synthesized by a straightforward method as shown in Scheme 1. In this process, sinomenine anion was generated in situ from the reaction of sinomenine (1) with the excess quantity of potassium carbonate in N,N-dimethyl formide (DMF) solvent at room temperature under argon atmosphere. The resulting sinomenine anion reacted with 4-(methyl-ortho-carboranyl)-n-butyl iodide (2), prepared according to the literature method, to produce the carboranyl sinomenine (3) as a colorless solid in 54.3% yield after recrystallization from tetrahydrofuran (THF) solvent.

Compound | Boron amounts delivered to the cells [1] | Boron amounts delivered to the cells [2] | Concentration in malignant cells relative to blood and other healthy cells [3] | Surviving fraction ([4]; after thermal neutron irradiation for 50 min) | Killing effect improved compared with L-BPA ([4]; thermal neutron irradiation, same operating conditions as L-BPA) | Killing effects enhanced compared with L-BPA [5] | IC50 [6] [µM] | Boron amounts delivered to the cells [7] [μg/10^7 cells] | Boron amounts delivered to the cells [8] [μg/10^7 cells] | Solubility [9]
N[C@@H](Cc1ccc(B(O)O)cc1)C(=O)O [L-BPA, 4-borono-L-phenylalanine] | 0.67 [21] μg/10^7 cells | 0.74 [31] μg/10^7 cells | 2–4 times |  |  |  |  |  |  | 
methylcarboranyl-n-butyl sinomenine [Compound 3] |  |  |  | around 0.01 | approximately nine times | approximately three times | 310.4 ± 0.3 | 4.25 | 3.04 | soluble in various organic solvents
sodium borocaptate [BSH] | 2.14 [21] μg/10^7 cells | 1.82 [31] μg/10^7 cells |  |  |  |  |  |  |  | 
